According to patent US9062026B2, “Fused pyrimidines and substituted quinazolines as inhibitors of p97” (Cleave Biosciences, Inc., priority 2012, dated 2015):
Like-named read-outs stand apart in the source and are kept apart here.

Columns and labels:
p97 = p97 (Homo sapiens (Human), UniProt P55072); assay: P97 ATPase biochem assay (ADP Glo); format: biochemical
Description: The ATPase assay is performed according the following protocol: Purified enzyme (20 nM p97), substrate (20 μM ATP) and a dose titration of compounds are mixed in buffer (50 mM TRIS pH 7.5, 20 mM MgCl2, 0.02% TX-100, 1 mM DTT, 0.2% (v/v) glycerol) and incubated at 37° C. for 15 minutes. The reaction is terminated and the level of product generated is measured using the ADP Glo Assay Kit (Promega, Madison Wis.). Plotting product generated versus compound concentration and using a four-parameter fit model generates an IC50 value for each compounds.

A549 K48 = A549 K48 cell intensity (lysine-48 poly-ubiquitin accumulation, immunofluorescence); format: cell-based; conditions: Homo sapiens
Description: Image-analysis is used to generate quantitative data from these assays that can be fit to a four-parameter sigmoid curve to derive IC50 values. Substrates of the ubiquitin-proteasome system, such as p53, are monitored after tumor cell lines are incubated with compounds for several hours. Accumulation of these proteins indicates an inhibition of proteasome-mediated degradation. Accumulation of lysine-48 chain linkage of poly-ubiquitin is also monitored by immunofluorescence as an indicator of ubiquitin-proteasome system inhibition. Both LC3 and SQSTM1 are mediators of autophagy. The localization and amounts of these proteins are monitored by immunofluorescence and report on the activity and inhibition of autophagy in response to p97 inhibition.

[1] = 20 nM p97, 20 μM ATP, 37° C., 15 minutes, read-out: p97 biochem IC50

Sequence of p97 (P55072 whole entry): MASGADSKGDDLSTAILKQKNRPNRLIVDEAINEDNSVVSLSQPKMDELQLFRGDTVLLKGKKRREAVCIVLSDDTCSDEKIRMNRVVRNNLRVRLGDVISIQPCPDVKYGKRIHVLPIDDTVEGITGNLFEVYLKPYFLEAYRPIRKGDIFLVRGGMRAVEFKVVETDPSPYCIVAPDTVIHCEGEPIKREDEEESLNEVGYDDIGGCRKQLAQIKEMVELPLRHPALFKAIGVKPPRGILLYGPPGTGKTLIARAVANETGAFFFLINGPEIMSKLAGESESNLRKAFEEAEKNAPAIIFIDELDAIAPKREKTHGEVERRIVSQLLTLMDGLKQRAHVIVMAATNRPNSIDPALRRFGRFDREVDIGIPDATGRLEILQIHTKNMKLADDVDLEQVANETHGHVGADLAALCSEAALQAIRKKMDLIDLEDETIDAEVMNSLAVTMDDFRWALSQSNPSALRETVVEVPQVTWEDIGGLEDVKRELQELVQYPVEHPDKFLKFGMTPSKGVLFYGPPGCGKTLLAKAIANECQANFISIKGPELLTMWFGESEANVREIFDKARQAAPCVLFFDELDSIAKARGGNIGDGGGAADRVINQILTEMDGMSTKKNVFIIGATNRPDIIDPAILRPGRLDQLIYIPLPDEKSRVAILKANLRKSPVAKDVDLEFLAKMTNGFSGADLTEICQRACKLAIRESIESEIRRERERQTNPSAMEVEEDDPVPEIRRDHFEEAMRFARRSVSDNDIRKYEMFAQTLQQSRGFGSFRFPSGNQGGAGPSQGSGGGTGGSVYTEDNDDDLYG

IC50 (p97; read-out: p97 IC50)	IC50 (A549 K48)	IC50 (p97; [1])	Compound
< 300 nM	< 10000 nM		NCc1cc2ccccc2n1-c1nc2c(c(NCc3ccccc3)n1)CCCC2 [2-[2-(aminomethyl)-1H-indol-1-yl]-N-benzyl-5,6,7,8-tetrahydroquinazolin-4-amine]
< 300 nM	< 10000 nM		COC(=O)NCc1cc2ccccc2n1-c1nc2c(c(NCc3ccccc3)n1)CCCC2 [methyl N-({1-[4-(benzylamino)-5,6,7,8-tetrahydroquinazolin-2-yl]-1H-indol-2-yl}methyl)carbamate]
< 300 nM	< 10000 nM		COc1cc2ccccc2n1-c1nc2c(c(NCc3ccccc3)n1)COCC2 [N-benzyl-2-(2-methoxy-1H-indol-1-yl)-5H,7H,8H-pyrano[4,3-d]pyrimidin-4-amine]
< 100 nM	< 10000 nM		Cc1nc2c(C#N)cccc2n1-c1nc2c(c(NCc3ccccc3)n1)CCCC2 [1-[4-(benzylamino)-5,6,7,8-tetrahydroquinazolin-2-yl]-2-methyl-1H-1,3-benzodiazole-4-carbonitrile]
< 300 nM	< 10000 nM		COCCOc1cccc2c(NCc3ccccc3)nc(-n3c(OC)nc4ccccc43)nc12 [N-benzyl-2-(2-methoxy-1H-1,3-benzodiazol-1-yl)-8-(2-methoxyethoxy)quinazolin-4-amine]
< 300 nM	< 10000 nM		CN(C)Cc1cc2ccccc2n1-c1nc2c(c(NCc3ccccc3)n1)CCCC2 [N-benzyl-2-{2-[(dimethylamino)methyl]-1H-indol-1-yl}-5,6,7,8-tetrahydroquinazolin-4-amine]
< 300 nM	< 10000 nM		COc1cccc2c(NCc3ccccc3)nc(-n3c(C(C)N)cc4ccccc43)nc12 (centres unmarked) [2-[2-(1-aminoethyl)-1H-indol-1-yl]-N-benzyl-8-methoxyquinazolin-4-amine]
< 100 nM	< 10000 nM		CC(=O)NCc1cc2ccccc2n1-c1nc2c(c(NCc3ccccc3)n1)CCCC2 [N-({1-[4-(benzylamino)-5,6,7,8-tetrahydroquinazolin-2-yl]-1H-indol-2-yl}methyl)acetamide]
< 100 nM	< 10000 nM		COc1cc2c(C#N)cccc2n1-c1nc2c(c(NCc3ccccc3)n1)CCCC2 [1-[4-(benzylamino)-5,6,7,8-tetrahydroquinazolin-2-yl]-2-methoxy-1H-indole-4-carbonitrile]
< 100 nM	< 10000 nM		Cc1cc2c(C#N)cccc2n1-c1nc2c(c(NCc3ccccc3)n1)CN(C)CC2 [1-[4-(benzylamino)-6-methyl-5H,6H,7H,8H-pyrido[4,3-d]pyrimidin-2-yl]-2-methyl-1H-indole-4-carbonitrile]
< 100 nM	< 10000 nM		CCOc1cc2ccccc2n1-c1nc2c(c(NCc3ccccc3)n1)CCCC2 [N-benzyl-2-(2-ethoxy-1H-indol-1-yl)-5,6,7,8-tetrahydroquinazolin-4-amine]
		< 2000 nM	COC(=O)NCc1cc2ccccc2n1-c1nc2c(c(NCc3ccccc3)n1)CCCC2 [drawing 232]
		< 5000 nM	COc1cccc2c(NCc3ccccc3)nc(-n3c(=O)n(C)c4ccccc43)nc12
		< 2000 nM	CC(N)c1cc2ccccc2n1-c1nc2c(c(NCc3ccccc3)n1)CCCC2 (centres unmarked)
< 30 nM			COCC(=O)N1CCc2nc(-n3c(C)cc4c(C#N)cccc43)nc(NCc3ccccc3)c2C1 [1-[4-(benzylamino)-6-(2-methoxyacetyl)-5H,6H,7H,8H-pyrido[4,3-d]pyrimidin-2-yl]-2-methyl-1H-indole-4-carbonitrile]
< 300 nM			c1ccc(CNc2nc(-n3c(N4CCOCC4)nc4ccccc43)nc3c2CCCC3)cc1 [N-benzyl-2-[2-(morpholin-4-yl)-1H-1,3-benzodiazol-1-yl]-5,6,7,8-tetrahydroquinazolin-4-amine]
		< 10000 nM	COc1cccc2c(NCc3ccccc3)nc(C3c4ccccc4CN3C)nc12 (centres unmarked)
		< 2000 nM	Cc1cc2ccccc2n1-c1nc2c(c(NCc3ccccc3)n1)CCCC2
		< 5000 nM	COCc1nc(-n2c(N)nc3ccccc32)nc(NCc2ccccc2)c1C
< 300 nM			Cc1nc2ccccc2n1-c1nc2c(c(NCc3ccccc3)n1)CCCC2 [N-benzyl-2-(2-methyl-1H-1,3-benzodiazol-1-yl)-5,6,7,8-tetrahydroquinazolin-4-amine]
		< 2000 nM	NCc1cc2ccccc2n1-c1nc2c(c(NCc3ccccc3)n1)CCCC2 [drawing 219]
		< 10000 nM	CNCC(=O)N1CCc2c(nc(-n3c(CN)cc4ccccc43)nc2NCc2ccccc2)C1
		< 2000 nM	COc1cccc2c(NCc3ccccc3)nc(-n3c(C)cc4ccccc43)nc12
		< 10000 nM	CNCCN1CCc2c(nc(-n3c(CN)cc4ccccc43)nc2NCc2ccccc2)C1
		< 2000 nM	COCCOc1cccc2c(NCc3ccccc3)nc(C3C(ON)=Nc4ccccc43)nc12 (centres unmarked)
		< 2000 nM	CN(C)Cc1cc2ccccc2n1-c1nc2c(c(NCc3ccccc3)n1)CCCC2 [drawing 229]
< 300 nM			Cc1cc2c(Cl)cccc2n1-c1nc2c(c(NCc3ccccc3)n1)CNCC2 [N-benzyl-2-(4-chloro-2-methyl-1H-indol-1-yl)-5H,6H,7H,8H-pyrido[4,3-d]pyrimidin-4-amine]

IC50 (p97; read-out: p97 IC50)	IC50 (A549 K48)	IC50 (p97; [1])	Compound
< 300 nM			Cc1cc2ccccc2n1-c1nc2c(c(NCc3ccccc3)n1)COCC2 [N-benzyl-2-(2-methyl-1H-indol-1-yl)-5H,7H,8H-pyrano[4,3-d]pyrimidin-4-amine]
		< 5000 nM	COc1cccc2c(NCc3ccccc3)nc(N3CCOc4ccccc43)nc12
		< 2000 nM	OCc1cc2ccccc2n1-c1nc2c(c(NCc3ccccc3)n1)CCCC2 [drawing 227]
< 300 nM			COCCOc1cccc2c(NCc3ccccc3)nc(-n3c(CNC(=O)OC)cc4ccccc43)nc12 [methyl N-({1-[4-(benzylamino)-8-(2-methoxyethoxy)quinazolin-2-yl]-1H-indol-2-yl}methyl)carbamate]
		< 2000 nM	Nc1nc2ccccc2n1-c1nc2c(c(NCc3ccccc3)n1)CCC2
		< 2000 nM	Cc1cc2ccccc2n1-c1nc2c(c(NCc3ccccc3)n1)CNC2
< 100 nM			COCCOc1cccc2c(NCc3ccccc3)nc(-n3c(CNS(C)(=O)=O)cc4ccccc43)nc12 [N-({1-[4-(benzylamino)-8-(2-methoxyethoxy)quinazolin-2-yl]-1H-indol-2-yl}methyl)methanesulfonamide]
		< 10000 nM	COc1cccc2c(NCc3ccccc3)nc(-n3c(N)nc4cccc(F)c43)nc12
< 100 nM			COCCOc1cccc2c(NCc3ccccc3)nc(-n3c(OC)cc4ccccc43)nc12 [N-benzyl-2-(2-methoxy-1H-indol-1-yl)-8-(2-methoxyethoxy)quinazolin-4-amine]
		< 2000 nM	COc1cccc2c(NCc3ccccc3)nc(-n3c(C)nc4ccccc43)nc12
		< 2000 nM	COCCOc1cccc2c(NCc3ccccc3)nc(-n3c(N)nc4ccccc43)nc12
< 300 nM			Cc1nc2ccccn2c1-c1nc2c(c(NCc3ccccc3)n1)CCCC2 [N-benzyl-2-{2-methylimidazo[1,2-a]pyridin-3-yl}-5,6,7,8-tetrahydroquinazolin-4-amine]
		< 2000 nM	CC(=O)N1CCc2c(nc(C3C(C)=Cc4ccccc43)nc2NCc2ccccc2)C1 (centres unmarked)
< 100 nM			Cc1cc2c(C#N)cccc2n1-c1nc2c(c(NCc3ccccc3)n1)COCC2 [1-[4-(benzylamino)-5H,7H,8H-pyrano[4,3-d]pyrimidin-2-yl]-2-methyl-1H-indole-4-carbonitrile]
		< 10000 nM	COc1cccc2c(NCc3ccccc3)nc(Nc3ccccn3)nc12
		< 2000 nM	COCc1cccc2c(NCc3ccccc3)nc(-n3c(N)nc4ccccc43)nc12
< 300 nM			COc1cccc2c(NCc3ccccc3)nc(-n3c(CNC(C)=O)cc4ccccc43)nc12 [N-({1-[4-(benzylamino)-8-methoxyquinazolin-2-yl]-1H-indol-2-yl}methyl)acetamide]
< 100 nM			COCCOc1cccc2c(NCc3ccccc3)nc(-n3c(CNC(N)=O)cc4ccccc43)nc12 [({1-[4-(benzylamino)-8-(2-methoxyethoxy)quinazolin-2-yl]-1H-indol-2-yl}methyl)urea]
		< 2000 nM	COc1cccc2c(NCc3ccccc3)nc(-c3c(N)[nH]c4ccccc34)nc12
		< 10000 nM	COc1cccc2c(NCc3ccccc3)nc(Nc3ncc[nH]3)nc12
< 100 nM			COCCOc1cccc2c(NCc3ccccc3)nc(-n3c(OC)cc4c(C#N)cccc43)nc12 [1-[4-(benzylamino)-8-(2-methoxyethoxy)quinazolin-2-yl]-2-methoxy-1H-indole-4-carbonitrile]
		< 2000 nM	Cc1cc2ccccc2n1-c1nc2c(c(NCc3ccccc3)n1)COC2
		< 5000 nM	COc1cccc2c(NCc3ccccc3)nc(-n3c(NC(C)=O)nc4ccccc43)nc12
		< 2000 nM	COc1cccc2c(NCc3ccccc3)nc(-n3c(CN)cc4ccccc43)nc12
		< 5000 nM	COc1cccc2c(NCc3ccccc3)nc(C3NCc4ccccc43)nc12 (centres unmarked)
< 100 nM			C#CC(=O)NCc1cc2ccccc2n1-c1nc2c(c(NCc3ccccc3)n1)CCCC2 [N-({1-[4-(benzylamino)-5,6,7,8-tetrahydroquinazolin-2-yl]-1H-indol-2-yl}methyl)prop-2-ynamide]

Compound	IC50 (p97; read-out: p97 IC50)	IC50 (A549 K48)	IC50 (p97; [1])
Cc1cc2c(C(N)=O)cccc2n1-c1nc2c(c(NCc3ccccc3)n1)COCC2 [1-[4-(benzylamino)-5H,7H,8H-pyrano[4,3-d]pyrimidin-2-yl]-2-methyl-1H-indole-4-carboxamide]		< 10000 nM	
